Source: ChEMBL document CHEMBL1150308, “Cytotoxic constituents from Brazilian red propolis and their structure-activity relationship” (Bioorg Med Chem, 2008)

How the values were obtained:
Assay type in all cases: functional, cell-based
[1] = Cytotoxicity against mouse LLC cells after 72 hrs by MTT assay; settings: Lewis lung carcinoma
[2] = Cytotoxicity against mouse B16-BL6 cells after 72 hrs by MTT assay; settings: B16-BL6, 72 h
[3] = Cytotoxicity against mouse colon 26-L5 cells after 72 hrs by MTT assay
HeLa = assay: Cytotoxicity against human HeLa cells after 72 hrs by MTT assay
HT-1080 = assay: Cytotoxicity against human HT1080 cells after 72 hrs by MTT assay; settings: HT-1080, 72 h
A549 = assay: Cytotoxicity against human A549 cells after 72 hrs by MTT assay; settings: A549, 72 h

| Structure (SMILES) | IC50 [1] [µM] | IC50 [2] [µM] | IC50 [3] [µM] | IC50 (HeLa) [µM] | IC50 (HT-1080) [µM] | IC50 (A549) [µM] |
| --- | --- | --- | --- | --- | --- | --- |
| COc1c(O)cc2c(c1O)C(=O)C[C@@H](c1ccccc1)O2 [DIHYDROOROXYLIN A] | 82.7 | 72.6 | 49 | 39.3 | 47.6 | 38 |
| O=C1c2ccc(O)cc2OC1(O)Cc1ccc(O)cc1 (configuration not stated) | > 100 | > 100 | 25.9 | > 100 | > 100 | > 100 |
| COc1ccc2c(c1)O[C@H]1c3ccc(O)c(OC)c3OC[C@@H]21 | 97.6 | > 100 | 29.4 | 47.1 | 96.3 | 97.3 |
| COc1cc([C@@H]2OC[C@@H]3[C@H]2CO[C@H]3c2ccc(O)c(OC)c2)ccc1O [(+)-PINORESINOL] | > 100 | > 100 | > 100 | 92.5 | > 100 | > 100 |
| COc1cccc2c1C(=O)c1c(O)c3c(c(O)c1C2=O)C[C@@](O)(C(=O)CO)C[C@@H]3O[C@H]1C[C@H](N)[C@H](O)[C@H](C)O1 [DOXORUBICIN] | 8.04 | 8.05 | 0.33 | 0.68 | 9.32 | 7.88 |
| C=C[C@@H](c1ccccc1)c1cc(O)c(OC)cc1OC | > 100 | 53.8 | 60.3 | 60.1 | > 100 | 73.7 |
| COc1ccc([C@H]2COc3cc(OC)ccc3C2)c(O)c1 | 24 | 24.1 | 29.8 | 44.3 | 50.1 | 46 |
| COc1ccc(-c2coc3cc(O)ccc3c2=O)cc1 [FORMONONETIN] | > 100 | > 100 | 83.6 | > 100 | > 100 | > 100 |
| CCO[C@@]12COc3cc(O)ccc3[C@@H]1Oc1cc(OC)ccc12 | > 100 | > 100 | > 100 | > 100 | > 100 | > 100 |
| O=C1c2ccc(O)cc2O[C@H](c2ccc(O)cc2)[C@H]1O [GARBANZOL] | > 100 | > 100 | > 100 | > 100 | > 100 | > 100 |
| COc1cc2c(cc1O)O[C@H](c1ccccc1)[C@@H](O)C2=O | > 100 | > 100 | > 100 | > 100 | > 100 | > 100 |
| O=C(/C=C/c1ccccc1)c1ccc(O)cc1O [2',4'-DIHYDROXYCHALCONE] | 39.5 | 44.3 | 7.4 | 23.1 | 34 | 41.6 |
| O=C1C[C@@H](c2ccc(O)cc2)Oc2cc(O)cc(O)c21 [NARINGENIN] | > 100 | > 100 | > 100 | > 100 | > 100 | > 100 |
| COc1ccc([C@H]2COc3cc(O)ccc3C2)c(O)c1 | 92.3 | 57.4 | 67 | 72.6 | > 100 | > 100 |
| COc1c(O)cc2c(c1O)C(=O)[C@H](O)[C@@H](c1ccccc1)O2 [ALNUSTINOL] | > 100 | > 100 | > 100 | > 100 | > 100 | > 100 |
| COc1ccc(-c2coc3cc(O)ccc3c2=O)c(O)c1 [XENOGNOSIN B] | > 100 | 34.1 | 49.3 | 69.8 | > 100 | > 100 |
| O=C1c2ccc(O)cc2O[C@H](c2ccccc2)[C@H]1O | > 100 | > 100 | > 100 | > 100 | > 100 | > 100 |
| COc1ccc(-c2coc3cc(O)cc(O)c3c2=O)c(O)c1 | > 100 | > 100 | 93.6 | > 100 | > 100 | > 100 |
| COc1ccc2c(c1)O[C@H]1c3ccc(O)c(O)c3OC[C@@H]21 | > 100 | > 100 | 54.1 | > 100 | > 100 | > 100 |
| O=C1C[C@@H](c2ccccc2)Oc2cc(O)c(O)c(O)c21 | > 100 | > 100 | 53.4 | > 100 | > 100 | > 100 |
| COc1c(O)cc2oc(-c3ccccc3)c(O)c(=O)c2c1O [ALNUSIN] | > 100 | > 100 | > 100 | > 100 | > 100 | > 100 |

| Structure (SMILES) | IC50 [1] [µM] | IC50 [2] [µM] | IC50 [3] [µM] | IC50 (HeLa) [µM] | IC50 (HT-1080) [µM] | IC50 (A549) [µM] |
| --- | --- | --- | --- | --- | --- | --- |
| COc1cc2c(cc1O)O[C@H](c1ccccc1)CC2=O | 9.3 | 6.7 | 5.9 | 5.6 | 7.9 | 8.6 |
| O=c1c(-c2ccc(O)cc2)coc2cc(O)ccc12 [DAIDZEIN] | > 100 | > 100 | 88.1 | > 100 | > 100 | > 100 |
| COc1ccc([C@H]2COc3cc(O)ccc3C2=O)c(OC)c1O | > 100 | > 100 | > 100 | > 100 | > 100 | > 100 |
| COc1ccc(-c2coc3cc(O)ccc3c2=O)cc1O [CALYCOSIN] | > 100 | > 100 | 98 | > 100 | > 100 | > 100 |
| COc1ccc([C@H]2COc3cc(O)ccc3C2=O)c(O)c1 | > 100 | > 100 | 67 | > 100 | > 100 | > 100 |
| COc1ccc2c(c1)O[C@@H]1c3ccc(O)cc3OC[C@H]21 | 17.2 | 42.4 | 11.3 | 23.4 | 28.4 | 39.5 |
| COc1ccc([C@H]2OC[C@H]3[C@@H]2CO[C@@H]3c2ccc(OC)c(OC)c2)cc1OC [(+)-EUDESMIN] | > 100 | > 100 | > 100 | > 100 | > 100 | > 100 |
| O=C(/C=C/c1ccc(O)cc1)c1ccc(O)cc1O [ISOLIQUIRITIGENIN] | 84 | 80.5 | 21.8 | 82.6 | 76.7 | 98.9 |
| O=C1C[C@@H](c2ccc(O)cc2)Oc2cc(O)ccc21 [LIQUIRTIGENIN] | > 100 | 97.7 | 56.6 | > 100 | > 100 | > 100 |
| COc1ccc([C@H]2COc3cc(O)ccc3C2)c(OC)c1O [MUCRONULATOL] | 8.4 | 30.4 | 7.3 | 24.2 | 18.2 | 9.9 |
| O=c1[nH]cc(F)c(=O)[nH]1 [FLUOROURACIL] | 2.59 | 5.78 | 0.46 | 0.77 | 9.45 | 9.19 |
| COc1cc2c(cc1OC)[C@@H]1COc3cc(O)ccc3[C@@H]1O2 [SECUNDIFLOROL I] | > 100 | 64.9 | 44.5 | 84.3 | > 100 | > 100 |
| COc1cc([C@H]2OC[C@H]3[C@@H]2CO[C@@H]3c2cc(OC)c(O)c(OC)c2)cc(OC)c1O [SYRINGARESINOL] | > 100 | > 100 | > 100 | > 100 | > 100 | > 100 |
| COc1cc(O)ccc1C(=O)/C=C/c1ccc(O)cc1 | 69.1 | 56.3 | 12.3 | 67.9 | 51.2 | 62.1 |
| COc1ccc2c(C)c(-c3ccc(O)cc3O)oc2c1 | 34.4 | 44.8 | 27.8 | 36.1 | 38.7 | 42.6 |
| COc1ccc([C@H]2COc3cc(O)cc(O)c3C2=O)c(O)c1 | > 100 | > 100 | 71.3 | > 100 | > 100 | > 100 |
| COc1ccc(-c2coc3cc(O)cc(O)c3c2=O)cc1O [PRATENSEIN] | > 100 | > 100 | > 100 | > 100 | > 100 | > 100 |
| COc1cc(O)ccc1[C@H]1COc2cc(O)ccc2C1 | > 100 | 33.6 | 49.8 | 77.1 | 75.3 | > 100 |
| O=C(c1ccc(O)cc1O)[C@@H](O)Cc1ccc(O)cc1 | > 100 | > 100 | > 100 | > 100 | > 100 | > 100 |
| COc1ccc(-c2coc3cc(O)cc(O)c3c2=O)cc1 [BIOCHANIN] | > 100 | > 100 | 98 | > 100 | > 100 | > 100 |
| COc1ccc2c(c1O)O[C@@H]1c3ccc(O)cc3OC[C@H]21 | 57.2 | 47.5 | 68.1 | 61.2 | > 100 | > 100 |
